# Data from ChEMBL document CHEMBL4400519, “Indazolylketones as new multitarget cannabinoid drugs” (Eur J Med Chem, 2019).
# Active and inactive are the calls of the source. The calls are words filed in the database; no cut-off is given here.
# How the values were obtained:
# [1] = target: T1, Cannabinoid receptor (Mus musculus) (UniProt P47746+P47936); assay: Agonist activity at cannabinoid receptor in ICR mouse vas deferens assessed as inhibition of electrically induced contractions at 2.7 x 10^-6 M after 10 mins relative to control; assay type: protein assay
# T1 sequence (P47746 whole entry, looked up): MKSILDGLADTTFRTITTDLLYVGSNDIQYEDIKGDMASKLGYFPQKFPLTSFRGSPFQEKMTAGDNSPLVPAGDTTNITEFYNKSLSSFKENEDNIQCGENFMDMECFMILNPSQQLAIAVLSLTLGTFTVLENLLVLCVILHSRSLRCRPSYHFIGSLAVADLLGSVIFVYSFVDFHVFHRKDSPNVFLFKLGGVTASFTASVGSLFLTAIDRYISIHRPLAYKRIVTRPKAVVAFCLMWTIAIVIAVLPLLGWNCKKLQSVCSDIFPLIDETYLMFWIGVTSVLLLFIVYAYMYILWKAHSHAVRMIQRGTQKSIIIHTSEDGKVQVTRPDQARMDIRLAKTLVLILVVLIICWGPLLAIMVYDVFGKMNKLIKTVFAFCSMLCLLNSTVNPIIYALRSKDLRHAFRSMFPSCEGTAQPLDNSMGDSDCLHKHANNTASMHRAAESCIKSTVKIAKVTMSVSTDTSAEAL
# T1 sequence (P47936 whole entry, looked up): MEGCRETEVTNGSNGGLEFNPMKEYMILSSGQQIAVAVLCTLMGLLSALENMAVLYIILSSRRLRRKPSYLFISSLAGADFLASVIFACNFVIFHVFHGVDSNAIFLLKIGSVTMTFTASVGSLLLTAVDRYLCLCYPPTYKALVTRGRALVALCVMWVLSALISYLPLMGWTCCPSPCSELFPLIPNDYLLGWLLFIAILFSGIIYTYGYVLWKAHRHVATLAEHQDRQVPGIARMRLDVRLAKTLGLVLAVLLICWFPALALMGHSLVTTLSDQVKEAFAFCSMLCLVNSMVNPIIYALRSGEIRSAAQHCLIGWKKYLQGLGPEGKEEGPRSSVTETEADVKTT
# SH-SY5Y [2] = assay: Neuroprotective activity against amyloid beta-induced neurodegeneration in human SH-SY5Y cells at 10 uM preincubated for 1 hr followed by amyloid beta addition and measured after 24 hrs by MTT assay; assay type: functional, cell-based
# [3] = target: T1, Cannabinoid receptor (Mus musculus); assay: Agonist activity at cannabinoid receptor in ICR mouse vas deferens assessed as inhibition of electrically induced contractions at 8.1 x 10^-6 M after 10 mins relative to control; assay type: protein assay
# [4] = target: T1, Cannabinoid receptor (Mus musculus); assay: Agonist activity at cannabinoid receptor in ICR mouse vas deferens assessed as inhibition of electrically induced contractions at 1.82 x 10^-5 M after 10 mins in presence of CB1 antagonist AM251 and CB2 antagonist AM630 relative to control; assay type: protein assay
# [5] = target: T1, Cannabinoid receptor (Mus musculus); assay: Agonist activity at cannabinoid receptor in ICR mouse vas deferens assessed as inhibition of electrically induced contractions at 9 x 10^-7 M after 10 mins in presence of CB1 antagonist AM251 and CB2 antagonist AM630 relative to control; assay type: protein assay
# SH-SY5Y [6] = assay: Neuroprotective activity against amyloid beta-induced neurodegeneration in human SH-SY5Y cells at 20 uM preincubated for 1 hr followed by amyloid beta addition and measured after 24 hrs by MTT assay; assay type: functional, cell-based
# [7] = target: T1, Cannabinoid receptor (Mus musculus); assay: Agonist activity at cannabinoid receptor in ICR mouse vas deferens assessed as inhibition of electrically induced contractions at 8.1 x 10^-6 M after 10 mins in presence of CB1 antagonist AM251 and CB2 antagonist AM630 relative to control; assay type: protein assay
# Homo sapiens [8] = species: Homo sapiens; assay: Antiproliferative activity against Alzheimer's patient derived lymphoblast cells at 5 uM after 72 hrs by MTT assay; assay type: functional
# [9] = Antiproliferative activity against normal human derived lymphoblast cells at 5 uM after 72 hrs by MTT assay
# [10] = target: T1, Cannabinoid receptor (Mus musculus); assay: Agonist activity at cannabinoid receptor in ICR mouse vas deferens assessed as inhibition of electrically induced contractions at 9 x 10^-7 M after 10 mins relative to control; assay type: protein assay
# [11] = target: T1, Cannabinoid receptor (Mus musculus); assay: Agonist activity at cannabinoid receptor in ICR mouse vas deferens assessed as inhibition of electrically induced contractions at 3 x 10^-7 M after 10 mins relative to control; assay type: protein assay
# [12] = target: T1, Cannabinoid receptor (Mus musculus); assay: Agonist activity at cannabinoid receptor in ICR mouse vas deferens assessed as inhibition of electrically induced contractions at 10^-7 M after 10 mins in presence of CB1 antagonist AM251 and CB2 antagonist AM630 relative to control; assay type: protein assay
# [13] = target: T1, Cannabinoid receptor (Mus musculus); assay: Agonist activity at cannabinoid receptor in ICR mouse vas deferens assessed as inhibition of electrically induced contractions at 1.82 x 10^-5 M after 10 mins relative to control; assay type: protein assay
# [14] = target: T1, Cannabinoid receptor (Mus musculus); assay: Agonist activity at cannabinoid receptor in ICR mouse vas deferens assessed as inhibition of electrically induced contractions at 10^-7 M after 10 mins relative to control; assay type: protein assay
# [15] = target: T1, Cannabinoid receptor (Mus musculus); assay: Agonist activity at cannabinoid receptor in ICR mouse vas deferens assessed as inhibition of electrically induced contractions at 3 x 10^-7 M after 10 mins in presence of CB1 antagonist AM251 and CB2 antagonist AM630 relative to control; assay type: protein assay
# Homo sapiens [16] = species: Homo sapiens; assay: Antiproliferative activity against Alzheimer's patient derived lymphoblast cells at 5 uM in presence of CB2 antagonist AM630 after 72 hrs by MTT assay; assay type: functional
# Cholinesterase [17] = target: T2, Cholinesterase (Homo sapiens, UniProt P06276); assay: Non-competitive inhibition of human serum BChE using butyrylthiocholine as substrate by Lineweaver-Burk plot analysis
# T2 sequence (P06276 whole entry): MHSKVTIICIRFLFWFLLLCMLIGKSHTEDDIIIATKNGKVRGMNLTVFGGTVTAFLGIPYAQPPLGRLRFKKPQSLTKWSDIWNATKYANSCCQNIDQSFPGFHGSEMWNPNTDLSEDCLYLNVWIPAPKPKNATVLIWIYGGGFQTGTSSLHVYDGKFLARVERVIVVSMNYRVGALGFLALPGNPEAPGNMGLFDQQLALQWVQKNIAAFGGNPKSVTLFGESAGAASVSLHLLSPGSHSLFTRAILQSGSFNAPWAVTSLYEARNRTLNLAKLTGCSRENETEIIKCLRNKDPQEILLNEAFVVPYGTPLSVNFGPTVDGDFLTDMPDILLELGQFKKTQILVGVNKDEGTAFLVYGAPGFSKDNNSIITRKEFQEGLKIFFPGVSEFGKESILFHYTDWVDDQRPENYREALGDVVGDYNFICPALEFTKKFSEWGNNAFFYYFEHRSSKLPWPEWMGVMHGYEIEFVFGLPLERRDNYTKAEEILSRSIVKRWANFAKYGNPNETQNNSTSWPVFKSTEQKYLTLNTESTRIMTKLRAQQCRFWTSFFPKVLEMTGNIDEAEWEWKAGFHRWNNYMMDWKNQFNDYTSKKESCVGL
# [18] = target: Beta-secretase 1 (Homo sapiens) (UniProt P56817); assay: Inhibition of human BACE1 at 10 uM incubated for 60 mins using rhodamine-EVNLDAEFK-quencher substrate by FRET assay
# Sequence of Beta-secretase 1 (Homo sapiens) (P56817 whole entry): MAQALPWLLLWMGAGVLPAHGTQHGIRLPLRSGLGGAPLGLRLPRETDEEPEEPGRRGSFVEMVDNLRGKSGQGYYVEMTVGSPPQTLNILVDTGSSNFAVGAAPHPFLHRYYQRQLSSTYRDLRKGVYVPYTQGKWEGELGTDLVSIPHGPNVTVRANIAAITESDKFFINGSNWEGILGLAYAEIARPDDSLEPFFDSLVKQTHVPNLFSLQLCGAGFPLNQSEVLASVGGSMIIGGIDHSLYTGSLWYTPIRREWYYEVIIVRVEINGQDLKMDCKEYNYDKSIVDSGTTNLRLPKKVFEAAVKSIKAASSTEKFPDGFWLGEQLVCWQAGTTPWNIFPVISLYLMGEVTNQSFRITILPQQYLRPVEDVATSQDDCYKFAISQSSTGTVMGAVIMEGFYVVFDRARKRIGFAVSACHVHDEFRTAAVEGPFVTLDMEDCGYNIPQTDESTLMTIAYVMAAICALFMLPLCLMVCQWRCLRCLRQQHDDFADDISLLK
# [19] = target: T1, Cannabinoid receptor (Mus musculus); assay: Agonist activity at cannabinoid receptor in ICR mouse vas deferens assessed as inhibition of electrically induced contractions at 2.7 x 10^-6 M after 10 mins in presence of CB1 antagonist AM251 and CB2 antagonist AM630 relative to control; assay type: protein assay
# Acetylcholinesterase [20] = target: T3, Acetylcholinesterase (Homo sapiens, UniProt P22303); assay: Inhibition of human erythrocyte AChE using acetylthiocholine as substrate by Ellman's assay
# T3 sequence (P22303 whole entry): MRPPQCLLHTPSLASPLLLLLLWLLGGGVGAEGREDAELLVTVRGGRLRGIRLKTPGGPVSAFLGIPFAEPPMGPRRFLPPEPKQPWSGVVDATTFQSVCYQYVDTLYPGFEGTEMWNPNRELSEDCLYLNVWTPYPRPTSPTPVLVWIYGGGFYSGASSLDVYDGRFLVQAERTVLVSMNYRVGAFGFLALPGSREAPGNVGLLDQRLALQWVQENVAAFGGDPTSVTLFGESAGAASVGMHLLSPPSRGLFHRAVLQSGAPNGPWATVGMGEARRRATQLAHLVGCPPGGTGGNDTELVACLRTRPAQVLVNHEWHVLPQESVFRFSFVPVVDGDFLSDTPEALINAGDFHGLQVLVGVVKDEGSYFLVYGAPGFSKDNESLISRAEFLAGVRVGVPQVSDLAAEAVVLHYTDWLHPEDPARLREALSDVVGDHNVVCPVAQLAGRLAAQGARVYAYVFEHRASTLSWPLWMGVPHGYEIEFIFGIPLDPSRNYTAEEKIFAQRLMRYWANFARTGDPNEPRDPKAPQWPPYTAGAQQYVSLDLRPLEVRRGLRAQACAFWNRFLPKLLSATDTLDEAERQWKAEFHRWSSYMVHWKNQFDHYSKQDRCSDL
# Acetylcholinesterase [21] = target: T3, Acetylcholinesterase; assay: Inhibition of human erythrocyte AChE at 10 uM using acetylthiocholine as substrate by Ellman's assay
# [22] = target: T1, Cannabinoid receptor (Mus musculus); assay: Agonist activity at cannabinoid receptor in ICR mouse vas deferens assessed as inhibition of electrically induced contractions at 10^-7 M after 10 mins in presence of CB1 antagonist AM251 relative to control; assay type: protein assay
# [23] = target: T1, Cannabinoid receptor (Mus musculus); assay: Agonist activity at cannabinoid receptor in ICR mouse vas deferens assessed as inhibition of electrically induced contractions at 8.1 x 10^-6 M after 10 mins in presence of CB2 antagonist AM630 relative to control; assay type: protein assay
# SH-SY5Y [24] = assay: Neuroprotective activity against amyloid beta-induced neurodegeneration in human SH-SY5Y cells at 20 uM preincubated for 1 hr followed by amyloid beta addition and measured after 24 hrs in presence of CB2 antagonist AM630 by MTT assay; assay type: functional, cell-based
# [25] = target: T1, Cannabinoid receptor (Mus musculus); assay: Agonist activity at cannabinoid receptor in ICR mouse vas deferens assessed as inhibition of electrically induced contractions at 1.82 x 10^-5 M after 10 mins in presence of CB2 antagonist AM630 relative to control; assay type: protein assay
# [26] = target: T1, Cannabinoid receptor (Mus musculus); assay: Agonist activity at cannabinoid receptor in ICR mouse vas deferens assessed as inhibition of electrically induced contractions at 2.7 x 10^-6 M after 10 mins in presence of CB2 antagonist AM630 relative to control; assay type: protein assay
# [27] = target: T1, Cannabinoid receptor (Mus musculus); assay: Agonist activity at cannabinoid receptor in ICR mouse vas deferens assessed as inhibition of electrically induced contractions at 10^-7 M after 10 mins in presence of CB2 antagonist AM630 relative to control; assay type: protein assay
# [28] = target: T1, Cannabinoid receptor (Mus musculus); assay: Agonist activity at cannabinoid receptor in ICR mouse vas deferens assessed as inhibition of electrically induced contractions at 2.7 x 10^-6 M after 10 mins in presence of CB1 antagonist AM251 relative to control; assay type: protein assay
# [29] = target: T1, Cannabinoid receptor (Mus musculus); assay: Agonist activity at cannabinoid receptor in ICR mouse vas deferens assessed as inhibition of electrically induced contractions at 1.82 x 10^-5 M after 10 mins in presence of CB1 antagonist AM251 relative to control; assay type: protein assay
# [30] = target: T1, Cannabinoid receptor (Mus musculus); assay: Agonist activity at cannabinoid receptor in ICR mouse vas deferens assessed as inhibition of electrically induced contractions at 9 x 10^-7 M after 10 mins in presence of CB2 antagonist AM630 relative to control; assay type: protein assay
# [31] = target: T1, Cannabinoid receptor (Mus musculus); assay: Agonist activity at cannabinoid receptor in ICR mouse vas deferens assessed as inhibition of electrically induced contractions at 8.1 x 10^-6 M after 10 mins in presence of CB1 antagonist AM251 relative to control; assay type: protein assay
# Cholinesterase [32] = target: T2, Cholinesterase; assay: Inhibition of human serum BChE using butyrylthiocholine as substrate by Ellman's assay
# Cholinesterase [33] = target: T2, Cholinesterase; assay: Inhibition of human serum BChE at 10 uM using butyrylthiocholine as substrate by Ellman's assay
# [34] = Antioxidant activity assessed as trolox equivalent of APPH-induced radical scavenging activity by ORAC-FL assay; assay type: functional
# [35] = target: T1, Cannabinoid receptor (Mus musculus); assay: Agonist activity at cannabinoid receptor in ICR mouse vas deferens assessed as inhibition of electrically induced contractions at 3 x 10^-7 M after 10 mins in presence of CB2 antagonist AM630 relative to control; assay type: protein assay
# [36] = target: T1, Cannabinoid receptor (Mus musculus); assay: Agonist activity at cannabinoid receptor in ICR mouse vas deferens assessed as inhibition of electrically induced contractions at 3 x 10^-7 M after 10 mins in presence of CB1 antagonist AM251 relative to control; assay type: protein assay
# [37] = target: T1, Cannabinoid receptor (Mus musculus); assay: Agonist activity at cannabinoid receptor in ICR mouse vas deferens assessed as inhibition of electrically induced contractions at 9 x 10^-7 M after 10 mins in presence of CB1 antagonist AM251 relative to control; assay type: protein assay
# SH-SY5Y [38] = assay: Neuroprotective activity against amyloid beta-induced neurodegeneration in human SH-SY5Y cells at 10 uM preincubated for 1 hr followed by amyloid beta addition and measured after 24 hrs CB2 antagonist AM630 by MTT assay; assay type: functional, cell-based
SMILES,inhibition [1],Activity (SH-SY5Y [2]),inhibition [3],Activity (SH-SY5Y [6]),Activity (Homo sapiens [8]),Activity [9],inhibition [10],inhibition [11],inhibition [13],inhibition [14],Activity (Homo sapiens [16]),inhibition [18],IC50 (Acetylcholinesterase [20]),inhibition (Acetylcholinesterase [21]),inhibition [22],inhibition [23],inhibition [25],inhibition [28],inhibition [29],inhibition [31],further results
COc1ccc(COc2nn(CCN(C(C)C)C(C)C)c3ccccc23)cc1,43.1%,Active,74.7%,Active,Active,Non-Toxic,18.6%,8.5%,86.4%,7.5%,inactive,9%,> 10 µM,24%,–,–,–,–,–,–,inhibition [4]: 84%; inhibition [5]: 12%; inhibition [7]: 60%; inhibition [12]: 1.3%; inhibition [15]: 8.2%; inhibition (Cholinesterase [17]): Active; inhibition [19]: 20.3%
COc1ccc(CC(=O)n2nc(OCCCN3CCCCC3)c3ccccc32)cc1,42.5%,–,88.5%,Active,Active,Non-Toxic,16.9%,-0.3%,96%,-2.4%,inactive,60%,> 10 µM,43%,-9.4%,68.5%,94.3%,-1.6%,89.7%,61.9%,Activity (SH-SY5Y [24]): inactive; inhibition [26]: 14.7%; inhibition [27]: -9.2%; inhibition [30]: -1.4%; IC50 (Cholinesterase [32]): > 10 µM; inhibition (Cholinesterase [33]): 42%; Activity [34]: inactive; inhibition [35]: -9.4%
Cc1cc(C)c(C(=O)n2nc(OCCN3CCCCC3)c3ccccc32)c(C)c1,14%,Active,30.7%,–,Active,Non-Toxic,6.5%,3.6%,56.8%,2.6%,inactive,12%,11.6 µM,–,-0.4%,-4.7%,1.3%,8.7%,40.7%,19.8%,inhibition [36]: 1.4%; inhibition [37]: 7.6%; IC50 (Cholinesterase [32]): 0.29 µM; Activity (SH-SY5Y [38]): inactive; Activity [34]: inactive
